Reference: PubChem BioAssay AID1963865 (Molecular Pharmacology Branch, DTP, NCI, 2024)

System: KRAS PDC multicell spheroid viability
Assay: Anticancer human tumor 825966-067-R-J1-PDC patient-derived colon carcinoma cell line growth inhibition [KRAS2]
Conditions: for IC50: curve of first compound; for viability, T/C: stronger effect = lower value
Outline: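 Combination screen of spheroid viability in tumor-cell co-cultures with endothelial (HUVEC) and mesenchymal stem cell stroma. Each agent was tested in half-log dilutions, topping at clinical Cmax or at 10 microM without a known Cmax.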

[1] = second compound 0.1 µM, first compound 0.01 µM
[2] = second compound 0.1 µM, first compound 0.0316 µM
[3] = second compound 0.1 µM, first compound 0.1 µM
[4] = second compound 0.1 µM, first compound 0.316 µM
[5] = second compound 0.1 µM, first compound 1 µM
[6] = second compound 0.1 µM, first compound 3.16 µM
[7] = second compound 0.316 µM, first compound 0.01 µM
[8] = second compound 0.316 µM, first compound 0.0316 µM
[9] = second compound 0.316 µM, first compound 0.1 µM
[10] = second compound 0.316 µM, first compound 0.316 µM
[11] = second compound 0.316 µM, first compound 1 µM
[12] = second compound 0.316 µM, first compound 3.16 µM
[13] = second compound 1 µM, first compound 0.01 µM
[14] = second compound 1 µM, first compound 0.0316 µM
[15] = second compound 1 µM, first compound 0.1 µM
[16] = second compound 1 µM, first compound 0.316 µM
[17] = second compound 1 µM, first compound 1 µM
[18] = second compound 1 µM, first compound 3.16 µM
[19] = second compound 3.16 µM, first compound 0.01 µM
[20] = second compound 3.16 µM, first compound 0.0316 µM
[21] = second compound 3.16 µM, first compound 0.1 µM
[22] = second compound 3.16 µM, first compound 0.316 µM
[23] = second compound 3.16 µM, first compound 1 µM
[24] = second compound 3.16 µM, first compound 3.16 µM
[25] = second compound 10 µM, first compound 0.01 µM
[26] = second compound 10 µM, first compound 0.0316 µM
[27] = second compound 10 µM, first compound 0.1 µM
[28] = second compound 10 µM, first compound 0.316 µM
[29] = second compound 10 µM, first compound 1 µM
[30] = second compound 10 µM, first compound 3.16 µM
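Also: spheroids exposed to compounds for 7 days.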
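For viability, T/C in this document: 100% = DMSO vehicle control viability.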

| SMILES | IC50 (second compound 0.1 µM) [nM] | IC50 (second compound 0.316 µM) [nM] | IC50 (second compound 1 µM) [nM] | IC50 (second compound 3.16 µM) [nM] | IC50 (second compound 10 µM) [nM] | viability, T/C [1] [%] | viability, T/C [2] [%] | viability, T/C [3] [%] | viability, T/C [4] [%] | viability, T/C [5] [%] | viability, T/C [6] [%] | viability, T/C [7] [%] | viability, T/C [8] [%] | viability, T/C [9] [%] | viability, T/C [14] [%] | viability, T/C [15] [%] | viability, T/C [20] [%] | viability, T/C [21] [%] | viability, T/C [26] [%] | viability, T/C [27] [%] | further results |
| --- | --- | --- | --- | --- | --- | --- | --- | --- | --- | --- | --- | --- | --- | --- | --- | --- | --- | --- | --- | --- | --- |
| CC(=O)OC12COC1CC(O)C1(C)C(=O)C(O)C3=C(C)C(OC(=O)C(O)C(NC(=O)OC(C)(C)C)c4ccccc4)CC(O)(C(OC(=O)c4ccccc4)C21)C3(C)C (stereo not given) + CC1OCC2(CCN(c3cnc(Sc4ccnc(N)c4Cl)c(N)n3)CC2)C1N | < 10 | < 10 | < 10 | < 10 | < 10 | 17.9 | 15.2 | 18.4 | 17.1 | 17.3 | 22 | 13.1 | 12 | 13.3 | 18 | 18.9 | 10.2 | 10.7 | 7.25 | 10 | viability, T/C [10]: 12%; viability, T/C [11]: 15.8%; viability, T/C [12]: 15.9%; viability, T/C [13]: 17.5%; viability, T/C [16]: 12.3%; viability, T/C [17]: 13%; viability, T/C [18]: 21.6%; viability, T/C [19]: 10.3%; viability, T/C [22]: 6.99%; viability, T/C [23]: 7.72%; viability, T/C [24]: 11.7%; viability, T/C [25]: 7.08%; viability, T/C [28]: 6.28%; viability, T/C [29]: 4.82%; viability, T/C [30]: 10.1% |
| CN(C)C/C=C/C(=O)Nc1cc2c(Nc3ccc(F)c(Cl)c3)ncnc2cc1O[C@H]1CCOC1 + CC1OCC2(CCN(c3cnc(Sc4ccnc(N)c4Cl)c(N)n3)CC2)C1N | > 100 | > 100 | > 100 | > 100 | > 100 | 120 | 91.4 | 80.2 | – | – | – | 79.1 | 105 | 101 | 84.2 | 96.8 | 88.1 | 85.9 | 94.9 | 124 | viability, T/C (second compound 0.1 µM, first compound 0.000316 µM): 103%; viability, T/C (second compound 0.1 µM, first compound 0.001 µM): 100%; viability, T/C (second compound 0.1 µM, first compound 0.00316 µM): 126%; viability, T/C (second compound 0.316 µM, first compound 0.000316 µM): 93.4%; viability, T/C (second compound 0.316 µM, first compound 0.001 µM): 86.6%; viability, T/C (second compound 0.316 µM, first compound 0.00316 µM): 94.2%; viability, T/C (second compound 1 µM, first compound 0.000316 µM): 104%; viability, T/C (second compound 1 µM, first compound 0.001 µM): 118%; viability, T/C (second compound 1 µM, first compound 0.00316 µM): 99%; viability, T/C [13]: 81.8%; viability, T/C (second compound 3.16 µM, first compound 0.000316 µM): 100%; viability, T/C (second compound 3.16 µM, first compound 0.001 µM): 105%; viability, T/C (second compound 3.16 µM, first compound 0.00316 µM): 93.9%; viability, T/C [19]: 86.3%; viability, T/C (second compound 10 µM, first compound 0.000316 µM): 81.1%; viability, T/C (second compound 10 µM, first compound 0.001 µM): 87.2%; viability, T/C (second compound 10 µM, first compound 0.00316 µM): 108%; viability, T/C [25]: 107% |
| O=C(c1cc(Cc2n[nH]c(=O)c3ccccc23)ccc1F)N1CCN(C(=O)C2CC2)CC1 + CC1OCC2(CCN(c3cnc(Sc4ccnc(N)c4Cl)c(N)n3)CC2)C1N | > 10000 | > 10000 | > 10000 | > 10000 | 985 | – | 78.2 | 67.3 | 82 | 71.1 | 80.6 | – | 79.2 | 76.2 | 77.8 | 91.5 | 105 | 109 | 104 | 89.2 | viability, T/C (second compound 0.1 µM, first compound 10 µM): 81.4%; viability, T/C [10]: 92.6%; viability, T/C [11]: 67.6%; viability, T/C [12]: 85%; viability, T/C (second compound 0.316 µM, first compound 10 µM): 86.6%; viability, T/C [16]: 75.7%; viability, T/C [17]: 68%; viability, T/C [18]: 62.5%; viability, T/C (second compound 1 µM, first compound 10 µM): 82.2%; viability, T/C [22]: 95.1%; viability, T/C [23]: 102%; viability, T/C [24]: 102%; viability, T/C (second compound 3.16 µM, first compound 10 µM): 78.1%; viability, T/C [28]: 77.5%; viability, T/C [29]: 54.9%; viability, T/C [30]: 17.4%; viability, T/C (second compound 10 µM, first compound 10 µM): 17.6% |
